Measured values as given in ChEMBL document CHEMBL1122450, “Biological effects of modified colchicines. 2. Evaluation of catecholic colchicines, colchifolines, colchicide, and novel N-acyl- and N-aroyldeacetylcolchicines” (J Med Chem, 1983).
Active and inactive are the calls of the source.

Key:
Mus musculus [1] = test: Toxicity found after a single intramuscular injection in mice; details: in vivo, im
Mus musculus [2] = species: Mus musculus; test: Toxicity in the P388 NCI screen defined as the dose that caused an average wt. loss>3g in at least one out of set of mice or the death of one or more of mice; format: organism-based; details: in vivo
P388 [3] = test: Potency against lymphocytic leukemia P388 screen in mice; inactive; format: functional, cell-based; details: Mus musculus
P388 [4] = test: Potency against lymphocytic leukemia P388 screen in mice.; format: functional, Mus musculus
[5] = tested on: Tubulin (Rattus norvegicus); details: Brain, at 25 µM
Mus musculus [6] = species: Mus musculus; test: Toxicity in the P388 NCI screen in second assay.; format: organism-based; details: in vivo

Binding [5] [%] | Compound | Toxicity (Mus musculus [1]) [µM/kg] | Toxicity (Mus musculus [2]) [µM/kg] | Potency (P388 [3]) | Potency (P388 [4]) [µM/kg] | Toxicity (Mus musculus [6]) [µM/kg]
– | COc1cc2c(c(O)c1O)-c1ccc(OC)c(=O)cc1[C@@H](NC(C)=O)CC2 | > 450 | > 320 | inactive | – | –
– | COc1cc2c(c(OC)c1OC)-c1ccc(OC)c(=O)cc1[C@@H](NC(=O)COc1ccccc1)CC2 | 61.3 | 5.1 | – | 1.3 | –
52 | COc1cc2c(c(OC)c1Oc1nnnn1-c1ccccc1)-c1ccc(OC)c(=O)cc1[C@@H](NC(C)=O)CC2 | – | – | – | – | –
– | CCOC(=O)N[C@H]1CCc2cc(OC)c(OC)c(OC)c2-c2ccc(OC)c(=O)cc21 | – | 11.7 | – | – | 1.5
– | COc1cc2c(c(OC)c1OC)-c1cccc(=O)cc1[C@@H](NC(C)=O)CC2 [CHOLCHICIDE] | 168.9 | 54.2 | – | 9.2 | –
– | COc1cc(C(=O)N[C@H]2CCc3cc(OC)c(OC)c(OC)c3-c3ccc(OC)c(=O)cc32)cc(OC)c1OC | > 180 | 72.6 | – | 14 | –
0 | COc1cc2c(c(OC)c1OC)-c1ccc(=O)c(OC)cc1[C@@H](NC(=O)CO)CC2 | – | – | – | – | –
– | COc1cc2c(c(OC)c1OC)-c1ccc(OC)c(=O)cc1[C@@H](NC(=O)CO)CC2 [COLCHIFOLINE] | 3.9 | 3 | – | 0.7 | –
– | COc1cc2c(c(OC)c1OC)-c1ccc(OC)c(=O)cc1[C@@H](NC(=O)C(C)(C)C)CC2 | 9.3 | – | – | – | –
69 | COc1cc(/C=C/C(=O)N[C@H]2CCc3cc(OC)c(OC)c(OC)c3-c3ccc(OC)c(=O)cc32)cc(OC)c1O | – | – | – | – | –
– | COc1cc2c(c3c1OCO3)-c1ccc(OC)c(=O)cc1[C@@H](NC(C)=O)CC2 | > 167 | 104 | inactive | – | –
41 | COc1cc2c(c(OC)c1OC)-c1ccc(OC)c(=O)cc1[C@@H](NC(=O)/C=C(\C)C=C=C(C)/C=C/C1=C(C)CCCC1(C)C)CC2 | – | – | – | – | –
– | COc1c2c(cc3c1-c1ccc(OC)c(=O)cc1[C@@H](NC(C)=O)CC3)OCO2 | 9.7 | 39.1 | – | <10 | –
10 | CCC(=O)N[C@H]1CCc2cc(OC)c(OC)c(OC)c2-c2ccc(=O)c(OC)cc21 | – | – | – | – | –
27 | COc1c(Oc2nnnn2-c2ccccc2)cc2c(c1OC)-c1ccc(OC)c(=O)cc1[C@@H](NC(C)=O)CC2 | – | – | – | – | –
– | COc1cc2c(c(OC)c1OC)-c1ccc(OC)c(=O)cc1[C@@H](NC(C)=O)CC2 [COLCHICINE] | 3 | 2.5 | – | 0.4 | –
– | COc1cc2c(c(OC)c1OC)-c1ccc(OC)c(=O)cc1[C@@H](NC(=O)c1ccccc1)CC2 | 60.5 | 4.3 | – | 1 | –
– | COc1c(O)c(O)cc2c1-c1ccc(OC)c(=O)cc1[C@@H](NC(C)=O)CC2 | > 450 | 54 | – | 20 | –
– | CCCC(=O)N[C@H]1CCc2cc(OC)c(OC)c(OC)c2-c2ccc(OC)c(=O)cc21 | 5.8 | 5.8 | – | 0.7 | –
– | CCOCC(=O)N[C@H]1CCc2cc(OC)c(OC)c(OC)c2-c2ccc(OC)c(=O)cc21 | 9 | 2.8 | – | 0.4 | –
– | CCC(=O)N[C@H]1CCc2cc(OC)c(OC)c(OC)c2-c2ccc(OC)c(=O)cc21 | 8.2 | – | – | – | –

Compound | Binding [5] [%] | Toxicity (Mus musculus [1]) [µM/kg] | Toxicity (Mus musculus [2]) [µM/kg] | Potency (P388 [3]) | Potency (P388 [4]) [µM/kg] | Toxicity (Mus musculus [6]) [µM/kg]
COc1cc2c(c(OC)c1OC)-c1ccc(OC)c(=O)cc1[C@@H](N(C)C(=O)CO)CC2 | 99 | 14.5 | 2.9 | – | 0.6 | –
COc1cc2c(c(OC)c1O)-c1ccc(OC)c(=O)cc1[C@@H](NC(=O)C(F)(F)F)CC2 | 96 | 32.5 | 23.5 | – | 3.8 | –
